This is an account of results in patent US20140155321A1, “Polypeptides and Their Use” (Novabiotics Limited, priority 2012, published 2014).

One may read the MIC50 as the lowest concentration that inhibits either 50% of growth or 50% of the strains tested, depending on the study. A higher MIC50 goes with lower susceptibility. As a reminder, the MIC80 is an inhibitory concentration at the 80% level, which refers to growth in some studies and to a panel of isolates in others.

Where two headings read alike, the source gives them in different places. Some results are limits rather than exact numbers.

The test system of data set [1] is Malassezia pachydermatis (CBS6536). As to conditions: for positive skin cultures / approximate number of cfu from skin biopsies, Group ave.: 10 d post-infection, 5% (w/v) NP108 or 2% (w/v) miconazole topical; for approximate number of cfu from skin biopsies, Group ave.: 3 days incubation; for Group ave. Day+10 clinical score: topical once a day for 6 d from 48 h post-infection, 5% (w/v) NP108 or 2% (w/v) miconazole, score 3.0 = significant crusting/erythema. The protocol:
Determination of the Efficacy of NP108 Against Malassezia pachydermatis (CBS6536) in a Murine Model of Localised Dermatophyte Skin Infection (10 Days Post-Infection)
In this Malassezia spp. skin infection study, 30 male CD1 mice (10 per treatment group) were scored daily for 10 d post-infection based on the clinical observations of the infected area. Mice were treated with test article, 5% (w/v) NP108, 2% (w/v) miconazole or vehicle commencing 48 h post-infection for 6 d. Groups of 10 mice were euthanized for culture of skin tissue 10 d post-infection. Skin samples were dissected into 10 pieces per mouse and each piece streaked onto Modified Leeming Notman agar (MLNA) for culture at 30° C. for up to 7 d. Data from these samples has been recorded as number positive for Malassezia pachydermatis CBS6536 growth per mouse and approximate number of quantifiable cfu per streaked sample; plates were read after 3 d and 7 d incubation. Test article NP108 was supplied as a 5% (w/v) dosing preparation in 65% PEG14000, supplied ready to administer without any reconstitution or dilution required, as was vehicle preparation also.

In a further data set the test system is human red blood cells. Kind of data set: Haematotoxicity (haemolysis) versus 10% human red blood cells. It counts as cell-based. The protocol: (§1) Haematotoxicity versus 10% human red blood cells and cyctotoxicity versus human dermal fibroblast (BJ) cells and human lung epithelial (A549) cells was determined by standard in vitro procedures known to those skilled in the art (Table 1 and FIG. 1).

Data set [2] concerns M. pachydermatis NCPF3667. The data set can be described thus: MIC by modified CLSI M27-A3 broth dilution versus M. pachydermatis NCPF3667. The format is cell-based, Malassezia pachydermatis. Conditions: Table 2. The protocol: (§2) The minimum inhibitory concentration (MIC) of all materials was determined according to methods described in the Clinical and laboratory Standards institute Approved Standard “Reference Method for Broth Dilution Antifungal Susceptibility Testing of Yeasts—Third Edition (M27-A3)” with the following modifications. In place of RPMI-1640 liquid medium, Modified Christensen's Medium, without the addition of agar, was used.
On the technique in general: In broth dilution the organism is exposed to a series of concentrations in liquid medium.

Data set [3] deals with M. furfur DSMZ6170. Kind of data set: Antifungal efficacy in conditioner vehicles, surviving colony count. Conditions: for killing of M. furfur: 60 min exposure. It counts as cell-based, Malassezia furfur. The protocol: The antifungal efficacy of NP108 was tested in a conditioner vehicle. The following materials were tested: • 1. 10% (v/v) Head & Shoulders conditioner (anti-dandruff conditioner) • 2. 10% (v/v) Pantene conditioner (“normal” conditioner) • 3. 10% (v/v) Pantene conditioner (“normal” conditioner)+4% (w/v) NP 108 • 4. Phosphate Buffered Saline (PBS)
All yeast inocula for this experiment were prepared to the 0.5 McFarland Standard. 400 μl of yeast inoculum was exposed to 100 μl of the materials described above for 1 h at 37° C., followed by washing to remove all traces of the materials. Serial dilutions of the yeasts were prepared (10^0-10^−5; 10-fold dilutions) and 100 μl was spread on Modified Christensen's Medium and incubated at 30° C. for 48 h and numbers of surviving colonies counted. All experiments were carried out in triplicate.
(§3) In a further experiment, the effect of incubation time on killing of Malassezia spp. was investigated. The following materials were tested: • 1. 0.04% (w/v) Zinc Pyrithione in 19.2% (v/v) Head &Shoulders conditioner • 2. 1.0% (w/v) NP108 in 19.2% (v/v) Head & Shoulders conditioner • 3. 19.2% (v/v) Head & Shoulders conditioner
(§4) All yeast inocula for this experiment were prepared to the 0.5 McFarland Standard. […] of yeast inoculum was exposed to 100 μl of the materials described above and incubated at 30° C. for 0, 3, 10, 30 or 60 min, followed by washing to remove all traces of the materials. Serial dilutions of the yeasts were prepared (10^0-10^−5; 10-fold dilutions) and 100 μl was spread on Modified Christensen's Medium and incubated at 30° C. for 48 h and numbers of surviving colonies counted. All experiments were carried out in triplicate.
In the following experiment, all samples of M. furfur DSMZ6170 (0.5 McFarland Standard) were exposed to 10% (v/v) H & S Conditioner, containing 10.0 (1.0%) mg/ml NP108 or 0.4 mg/ml zinc pyrithione (the active ingredient in H & S shampoo). The control samples were exposed to 10% (v/v) H & S Conditioner. The negative control samples were exposed to water alone (data not shown).
In the following experiment, all samples of M. furfur DSMZ6170 (0.5 McFarland Standard) were exposed to 10% (v/v) H & S Conditioner or 10% (v/v) Pantene Conditioner and a further treatment of 40 mg/ml NP108 (4.0%) in 10% (v/v) Pantene Conditioner. The control sample was exposed to PBS alone. All incubations were carried out for 60 min.

In data set [4] the test system is M. furfur DSMZ6170. Kind of data set: MIC by modified CLSI M27-A3 broth dilution versus M. furfur DSMZ6170. It counts as cell-based, Malassezia furfur. The method, then: as §2
Data set [5] relates to human dermal fibroblast (BJ) cells. The data set can be described thus: Cytotoxicity versus human dermal fibroblast (BJ) cells. The format is cell-based. Conditions: BJ fibroblasts. The method, then: as §1
Data set [6] deals with M. pachydermatis CBS6536. The data set can be described thus: Antifungal efficacy in Head & Shoulders conditioner, surviving colony count. The format is cell-based, Malassezia pachydermatis. As to conditions: FIG. 6. The protocol: as §3, §4
In the following experiment, all samples of M. pachydermatis CBS6536 (0.5 McFarland Standard) were exposed to 10% (v/v) Head & Shoulders (H & S) Conditioner, containing 0 (0%), 1.0 (0.1%) or 10.0 (1.0%) mg/ml NP108. The positive control samples were exposed to 10% (v/v) Head & Shoulders Conditioner. The negative control samples were exposed to water alone.

Data set [7] relates to M. furfur DSMZ6170. The data set can be described thus: Antifungal efficacy in a shampoo vehicle, surviving colony count. The format is cell-based, Malassezia furfur. Conditions: 40 mg/ml NP108 in 10% (v/v) Pantene shampoo; 60 min exposure; FIG. 5. The protocol:
The antifungal efficacy of NP108 was tested in a shampoo vehicle. The following materials were tested: • 1. 10% (v/v) Head & Shoulders shampoo (anti-dandruff shampoo) • 2. 10% (v/v) Pantene shampoo (“normal” shampoo) • 3. 10% (v/v) Pantene shampoo (“normal” shampoo)+4% (w/v) NP108 • 4. Phosphate Buffered Saline (PBS)
All yeast inocula for this experiment were prepared to the 0.5 McFarland Standard. 400 μl of yeast inoculum was exposed to 100 μl of the materials described above for 1 h at 37° C., followed by washing to remove all traces of the materials. Serial dilutions of the yeast inocula were prepared (10^0-10^−5; 10-fold dilutions) and 100 μl was spread on Modified Christensen's Medium and incubated at 30° C. for 48 h and numbers of surviving colonies counted. All experiments were carried out in triplicate.
In the following experiment, all samples of M. furfur DSMZ6170 (0.5 McFarland Standard) were exposed to 10% (v/v) Head & Shoulders (H & S) Shampoo, 10% (v/v) Pantene Shampoo and 10% (v/v) Pantene Shampoo containing 40.0 (4.0%) mg/ml NP108. The negative control samples were exposed to phosphate-buffered saline (PBS) alone. H & S Shampoo contains zinc pyrithione (˜1%) as an antifungal agent proven to kill Malassezia spp.

Data set [8] relates to M. pachydermatis CBS6536. The data set can be described thus: MIC by modified CLSI M27-A3 broth dilution versus M. pachydermatis CBS6536. The format is cell-based, Malassezia pachydermatis. The method, then: as §2
Data set [9] deals with M. furfur DSMZ6170. Conditions: 0.4 mg/ml zinc pyrithione, under in vitro conditions (not in conditioner).
Where [10] appears, read: Table 1, 1×10^6-5×10^6 cells/ml, Modified Christensen's Medium.
[11] abbreviates: Table 2, M. pachydermatis CBS6536.

Consider `Clc1ccc(COC(Cn2ccnc2)c2ccc(Cl)cc2Cl)c(Cl)c1` (centres unmarked) [miconazole, reference compound], for which, in data set [1], the positive skin cultures is recorded as 100%; the “approximate number of cfu from skin biopsies, Group ave.” value worked out at 131.4 cfu/mouse; the “Group ave. Day+10 clinical score” value is 1.31.
With Poly-L-Lysine [NP108], the tolerability of treatment entry in data set [1] (5% (w/v) NP108 in 65% PEG14000, topical, throughout the study) is on record as “well tolerated”. Besides, in data set [1], the positive skin cultures stood at 84%; the “approximate number of cfu from skin biopsies, Group ave.” value was 34.6 cfu/mouse; the “Group ave. Day+10 clinical score” value stood at 0.65. In addition, in the data set with human red blood cells, the “Haemolysis (LD50)” value is recorded as >10,000 μg/ml. For the same molecule, in [2], the “MIC50 Median” value is 15.6 µg/mL, the “MIC80 Median” value was in the range of 15.6 to 31.3 µg/mL and the “MIC100 Median” value is 31.3 µg/mL. The “killing of M. furfur” value in the data set with M. furfur DSMZ6170 [3] (10 mg/ml NP108 (1.0%) in H & S conditioner, FIG. 7) was “Complete killing”. The antifungal activity result in the data set with M. furfur DSMZ6170 [3] (10 mg/ml NP108 (1.0%) in H & S conditioner, after as little as 3 min exposure, time-dependent increase, FIG. 7) was “demonstrates antifungal activity”. Moreover, in the data set on M. furfur DSMZ6170 [3] (40 mg/ml NP108 (4.0%) in 10% (v/v) Pantene conditioner, FIG. 8), the “killing of M. furfur” value is “completely killing”. Besides, in the data set with M. furfur DSMZ6170 [4] (Table 2), the “MIC50 Median” value turned out to be 250 µg/mL, the “MIC80 Median” value was found to be 1000 µg/mL, the “MIC80 Range” value was 500 to 2000 µg/mL and the “MIC100 Median” value came to 2000 µg/mL. In the data set with M. furfur DSMZ6170 [4] (Table 2), the “MIC100 Range” value is 2000 to 4000 µg/mL. Moreover, the “MIC50 Range” value against M. furfur DSMZ6170 [4] (Table 2, three independent experiments) fell in the range of 125 to 500 µg/mL. In addition, the “Cytotoxicity (BJ; LD50)” value in data set [5] is 4,500 μg/ml. Also, in the data set with M. pachydermatis CBS6536 [6] (1 mg/ml NP108 (0.1%) in H & S conditioner), the antifungal activity entry is reported as “no antifungal activity”. The “killing of M. pachydermatis” value in the data set with M. pachydermatis CBS6536 [6] (10 mg/ml NP108 (1.0%) in H & S conditioner, after as little as 3 min exposure) is “kills”. In addition, in the data set with M. furfur DSMZ6170 [7], the “killing of M. furfur (surviving cfu/ml)” value is “kills”. In the data set with M. pachydermatis CBS6536 [8] (setting [10]), this molecule came in with an MIC50 of 62.5 to 125 µg/mL, an MIC80 of 62.5 to 125 µg/mL and an MIC100 of 125 µg/mL. For the same molecule, in the data set with M. pachydermatis CBS6536 [8] (setting [11]), the “MIC50 Median” value was determined as 31.25 µg/mL, the “MIC80 Median” value was determined as 62.5 µg/mL, the “MIC80 Range” value fell in the range of 31.25 to 125 µg/mL and the “MIC100 Median” value worked out at 62.5 µg/mL. Also, in the data set on M. pachydermatis CBS6536 [8] (setting [11]), the “MIC100 Range” value lay within 31.25 to 125 µg/mL. In addition, in the data set on M. pachydermatis CBS6536 [8] (Table 2, M. pachydermatis CBS6536, three independent experiments), the “MIC50 Range” value is 15.63 to 31.25 µg/mL.
Turning to zinc pyrithione [reference compound], the antifungal activity result with M. furfur DSMZ6170 [3] (0.4 mg/ml zinc pyrithione in H & S conditioner, FIG. 7) is “no antifungal activity”. Also, the “killing of M. furfur” value in the data set with M. furfur DSMZ6170 [9] is reported as “sufficient to kill”.
